For data set [1], the system named is plasma cytokines, chemokines and soluble angiogenic factors. Nature of the data set: Plasma cytokine, chemokine and soluble factor titration on treatment (D-7, C1D1, C1D8). It is filed as in vivo, human. As to the method:
Frozen plasma and frozen tumor biopsy supernatants were subsequently thawed, centrifuged for 15 min at 1,000 g, then titrated using Bio-Plex Pro™ Human Chemokine Panel (40-Plex, ref. 171AK99MR2, Bio-rad), Angiogenesis Panel 1 (human) (ref. K151P3S-1, Meso Scale Discovery), Human PD-1 and PD-L1 antibody sets (ref. F214A-3 & F214C-3, Meso Scale Discovery) following manufacturer's instructions. Each sample was run twice with the average value of the doublet taken as the result. Acquisitions were done on Bio-Plex 200™ System and MESO™ QuickPlex SQ120 readers. Raw data from Meso Scale Discovery's kit were analyzed with MSD's Discovery Workbench 4.0.
Inventors took advantage of the one-week lead-in nintedanib monotherapy prior to the pembrolizumab introduction to analyze the respective effects of the two drugs. Sequential blood sampling was performed at baseline and on-treatment in order to identify selective phannacodynamic markers of Nintedanib and Pembrolizumab that occurred upon treatment in all patients and independently from the treatment efficacy. Plasma was obtained from blood draws collected at baseline (D-7), one week after the nintedanib monotherapy lead-in (C1D1) and one week after the addition of pembrolizumab (C1D8). […] CCL15 and CXCL10 were also decreasing in all patients upon Nintedanib monotherapy but this decrease was only significant for patients with DCB (FIG. 10A).

The nature of data set [2]: PEMBIB trial, mesothelioma expansion cohort: safety and tolerability (CTCAE Version 4.03). Also noted: species or system human. Particulars: in vivo.
Data set [3] concerns advanced mesothelioma. Particulars: monotherapy; n=118; cited from earlier work.
Where [4] appears, read: D-7 vs C1D1, one-week nintedanib monotherapy, patients with both DCB and No DCB.
Setting [5] is: nintedanib monotherapy week, all patients, only significant for DCB.
Setting [6] is: one week after initiation of pembrolizumab, DCB and No DCB.
Setting [7] is: upon pembrolizumab addition (C1D1 to C1D8), only significant in No DCB.

For `COC(=O)c1ccc2c(c1)NC(=O)/C2=C(\Nc1ccc(N(C)C(=O)CN2CCN(C)CC2)cc1)c1ccccc1` [nintedanib], in data set [1] (setting [4]), the “blood Angiopoietin-2 level” value is given as “significantly decreased”, the “blood CCL21 level” value is given as “significantly decreased” and the “blood CCL23 level” value is “significantly decreased”. In addition, in data set [1] (first week of nintedanib, patients with DCB), the “plasma CCL8 level” value was “tended to decrease”. For the same molecule, in data set [1] (first week of nintedanib, patients with No DCB), the “plasma CCL8 level” value was “significantly increased”. Moreover, in data set [1] (setting [5]), the “plasma CCL15 level” value is listed as “decreasing” and the “plasma CXCL10 level” value is listed as “decreasing”. Moreover, in data set [2], the “tolerability of nintedanib 150 mg BID versus 200 mg BID” value is on record as “better tolerated”.
Take pembrolizumab: the “circulating soluble PD-1 (sPD1) median level” value in data set [1] (C1D8, one week after addition of pembrolizumab to nintedanib, both DCB and No DCB) is reported as “above 10 ng/mL”. Further, the “plasma CCL19 level” value in data set [1] (after one week of combination with pembrolizumab, all patients) was “increase”. In addition, the “circulating soluble PD-L1 (sPDL1) level” value in data set [1] (one week after addition of pembrolizumab, all patients) is “significantly increased”. In data set [1] (setting [6]), the CXCL9 serum level entry is “significant rise”, the CXCL10 serum level entry was “significant rise”, the CXCL11 serum level result was “significant rise” and the CXCL13 serum level result is given as “significant rise”. Besides, in data set [1] (setting [7]), the “plasma CCL3 level” value is “increased”, the “plasma CCL8 level” value is reported as “increased”, the “plasma CCL17 level” value is “increased” and the “plasma CCL23 level” value is recorded as “increased”. Also, the “plasma CXCL2 level” value in data set [1] (setting [7]) is “decreased”. In addition, the “objective response rate (ORR; BORR per RECIST1.1)” value in data set [3] is reported as 8%.
